From patent publication US12473283B2, “Compounds and their use” (Debiopharm International S.A., priority 2019, dated 2025)
Values after ≈ are worked out from the molar mass of the structure shown. Like-named read-outs stand apart in the source and are kept apart here.

Columns and labels:
[1] = target: FabI enzyme from Acinetobacter baumannii (Acinetobacter baumannii, UniProt D0CAD5); assay: Inhibition of FabI enzyme, rate of NADH consumption; assay type: biochemical
Experimental: (§1) Inhibition of FabI enzyme from Acinetobacter baumannii and Escherichia coli was tested by measuring the rate of NADH consumption (Δabsorbance at 340 nm/min) at 30° C. in 96-well plate format using an automated plate reader in the presence or absence of the test compounds. The assay mixture contained 100 mM Tris-HCl, pH 7.25 (A. baumannii) or 7.5 (E. coli), 100 mM ammonium acetate, 0.02% (A. baumannii) or 0.05% (E. coli) Pluronic F-68, 25 μM crotonyl ACP, 50 μM NADH, 25 pM (A. baumannii) or 50 pM (E. coli) recombinant FabI protein, and 7.5% DMSO. Test compounds were added at concentrations ranging from 0.17 to 10,000 nM in a final well volume of 100 μl. This dose-response inhibitory assay was performed using a 10-point, serial dilution series for each test compound. IC50 values for each test compound were assigned from logistical sigmoid curve-fitting of the inhibition dose response curves.

E. coli AG100 = assay: Broth microdilution MIC assay; assay type: cell-based; details: Escherichia coli, CA-MHB, 35° C., 20 hours
Experimental: (§2) The antibacterial activity of FabI inhibitors against select Gram-negative and Gram-positive bacterial species including susceptible and multi-drug resistant A. baumannii, E. coli, K. pneumoniae and S. aureus was tested using the broth microdilution Minimal Inhibitory Concentration (MIC) assay following CLSI guidelines for insoluble compounds. Test articles were serially diluted 2-fold in 100% dimethyl sulfoxide (DMSO) and then diluted 100-fold into cation adjusted Mueller-Hinton broth (CA-MHB) to achieve a 10-point test concentration range in 1% DMSO. Final compound concentrations were 0.016-8 μg/ml for S. aureus or 0.06-32 μg/ml for the Gram-negative species. MIC test plates were then prepared by transferring 100 μl of the final assay medium (test article in CA-MHB, 1% DMSO) into the appropriate wells of a sterile, low binding 96-well polystyrene plate. Direct colony suspension inoculums of the test strains were freshly prepared per CLSI guidelines, and the appropriate test wells were inoculated to achieve a final bacterial cell density of 5×10^5 CFU/ml. Growth control (no test article) and negative control (no bacterial inoculum) wells were also included. Exposure to light was minimized during all stages of assay preparation. […] Bacterial growth was then determined by measuring the optical density at 600 nm (OD600) using a SpectraMax Plus plate-reader spectrophotometer.

S. aureus ATCC 29213 = assay: Broth microdilution MIC assay; assay type: cell-based; details: Staphylococcus aureus, ATCC29213; CA-MHB, 35° C., 20 hours
Experimental: as §2

K. pneumoniae A6030827 = assay: Broth microdilution MIC assay; assay type: cell-based; details: Klebsiella pneumoniae, CA-MHB, 35° C., 20 hours
Experimental: as §2

[2] = test system: A. baumannii ATCC BAA1605; assay: Broth microdilution MIC assay; assay type: cell-based; details: Acinetobacter baumannii, ATCCBAA1605; CA-MHB, 35° C., 20 hours
Experimental: as §2

[3] = target: FabI enzyme from Escherichia coli (Escherichia coli, UniProt P0AEK4); assay: Inhibition of FabI enzyme, rate of NADH consumption; assay type: biochemical
Experimental: as §1

[4] = recombinant FabI, 30° C., pH 7.5, read-out: E. coli Fabl IC50
[5] = recombinant FabI, 30° C., pH 7.25, read-out: A. baumannii Fabl IC50

Chain of FabI enzyme from Acinetobacter baumannii (D0CAD5 entry or part of it): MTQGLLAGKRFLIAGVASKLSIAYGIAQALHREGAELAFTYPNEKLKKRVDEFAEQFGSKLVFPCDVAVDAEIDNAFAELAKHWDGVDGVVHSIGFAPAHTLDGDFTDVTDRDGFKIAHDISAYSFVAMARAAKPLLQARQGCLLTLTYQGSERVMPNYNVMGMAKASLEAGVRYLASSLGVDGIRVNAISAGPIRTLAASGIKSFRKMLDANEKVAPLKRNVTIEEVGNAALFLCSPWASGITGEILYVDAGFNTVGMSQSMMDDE
Chain of FabI enzyme from Escherichia coli (P0AEK4 whole entry): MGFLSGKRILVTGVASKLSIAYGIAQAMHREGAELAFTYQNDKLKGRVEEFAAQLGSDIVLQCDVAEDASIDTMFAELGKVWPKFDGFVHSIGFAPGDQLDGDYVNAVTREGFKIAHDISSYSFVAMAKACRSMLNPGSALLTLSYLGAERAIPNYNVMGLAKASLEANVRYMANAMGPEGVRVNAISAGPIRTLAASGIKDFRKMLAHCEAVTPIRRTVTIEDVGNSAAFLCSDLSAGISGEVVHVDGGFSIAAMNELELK

MIC (K. pneumoniae A6030827) [µg/mL] | IC50 [1, 5] [µM] | Compound | IC50 [1] [µM] | MIC (E. coli AG100) [µg/mL] | MIC (S. aureus ATCC 29213) [µg/mL] | MIC [2] [µg/mL] | IC50 [3, 4] [µM] | IC50 [3] [µM]
– | – | Cc1c(CN(C)C(=O)/C=C/c2cnc3c(c2)CC[C@H](N)C(=O)N3)oc2ccccc12.Cl (single isomer, unassigned) [Compound 71, hydrochloride] | < 0.01 | – | – | – | – | < 0.01
8 (≈ 15.3 µM) | < 0.01 | Cc1c(CN(C)C(=O)/C=C/c2cnc3c(c2)CCC(N2CCS(=O)(=O)CC2)C(=O)N3)oc2ccccc12 (stereo not drawn) [Compound 179, (E)-3-(7-(1,1-dioxidothiomorpholino)-8-oxo-6,7,8,9-tetrahydro-5H-pyrido[2,3-b]azepin-3-yl)-N-methyl-N-((3-methylbenzofuran-2-yl)methyl)acrylamide] | – | 8 (≈ 15.3 µM) | ≤ 4 | ≤ 4 | – | –
≤ 4 | < 0.01 | Cc1c(CN(C)C(=O)/C=C/c2cnc3c(c2)CC[C@H](N2CCOCC2)C(=O)N3)oc2c(F)cccc12 (single isomer, unassigned) [Compound 113] | – | 8 (≈ 16.2 µM) | ≤ 4 | ≤ 4 | – | –
≤ 4 | < 0.01 | Cc1c(CN(C)C(=O)/C=C/c2cnc3c(c2)CCC(N2CC4(CCOCC4)C2)C(=O)N3)oc2ccccc12 (stereo not drawn) [Compound 176, (E)-N-methyl-N-((3-methylbenzofuran-2-yl)methyl)-3-(8-oxo-7-(7-oxa-2-azaspiro[3.5]nonan-2-yl)-6,7,8,9-tetrahydro-5H-pyrido[2,3-b]azepin-3-yl)acrylamide] | – | ≤ 4 | ≤ 4 | ≤ 4 | – | –
– | – | Cc1oc2c(N)cccc2c1CN(C)C(=O)/C=C/c1cnc2c(c1)CC[C@H](N)C(=O)N2 (single isomer, unassigned) [Compound 193] | – | ≤ 4 | ≤ 4 | ≤ 4 | < 0.01 | –
– | – | Cc1c(CN(C)C(=O)/C=C/c2cnc3c(c2)CC[C@H](N)C(=O)N3)sc2ccccc12.Cl (single isomer, unassigned) [Compound 119, hydrochloride] | < 0.01 | – | – | – | – | < 0.01
≤ 4 | < 0.01 | Cc1c(CN(C)C(=O)/C=C/c2cnc3c(c2)CCC(N(C)C)C(=O)N3)oc2ccccc12 (stereo not drawn) [Compound 95, (E)-3-(7-(dimethylamino)-8-oxo-6,7,8,9-tetrahydro-5H-pyrido[2,3-b]azepin-3-yl)-N-methyl-N-((3-methylbenzofuran-2-yl)methyl)acrylamide] | – | ≤ 4 | ≤ 4 | ≤ 4 | – | –
– | – | Cc1oc2c(N)cccc2c1CN(C)C(=O)/C=C/c1cnc2c(c1)CCC(N1CCCC1)C(=O)N2 (stereo not drawn) [Compound 191, (E)-N-((7-amino-2-methylbenzofuran-3-yl)methyl)-N-methyl-3-(8-oxo-7-(pyrrolidin-1-yl)-6,7,8,9-tetrahydro-5H-pyrido[2,3-b]azepin-3-yl)acrylamide] | – | 8 (≈ 16.9 µM) | ≤ 4 | ≤ 4 | < 0.01 | –
≤ 4 | < 0.01 | Cc1c(CN(C)C(=O)/C=C/c2cnc3c(c2)CC[C@H](N2CC(O)C2)C(=O)N3)oc2ccccc12 (single isomer, unassigned) [Compound 171] | – | ≤ 4 | ≤ 4 | ≤ 4 | – | –
≤ 4 | < 0.01 | Cc1c(CN(C)C(=O)C=Cc2cnc3c(c2)CCC(N)C(=O)N3)oc2cccc(OC3CCC(N)CC3)c12 (single isomer, unassigned) [Compound 86] | – | ≤ 4 | ≤ 4 | ≤ 4 | – | –
≤ 4 | < 0.01 | Cc1c(CN(C)C(=O)/C=C/c2cnc3c(c2)CC[C@H](N(C)C)C(=O)N3)oc2ccccc12 (single isomer, unassigned) [Compound 96] | – | 8 (≈ 18.5 µM) | ≤ 4 | ≤ 4 | – | –

Compound | MIC (K. pneumoniae A6030827) [µg/mL] | IC50 [1, 5] [µM] | IC50 [1] [µM] | MIC (E. coli AG100) [µg/mL] | MIC (S. aureus ATCC 29213) [µg/mL] | MIC [2] [µg/mL] | IC50 [3, 4] [µM] | IC50 [3] [µM]
Cc1oc2ccccc2c1CN(C)C(=O)/C=C/c1cnc2c(c1)CCC(N)C(=O)N2.Cl (stereo not drawn) [Compound 94, (E)-3-(7-amino-8-oxo-6,7,8,9-tetrahydro-5H-pyrido[2,3-b]azepin-3-yl)-N-methyl-N-((2-methylbenzofuran-3-yl)methyl)acrylamide hydrochloride] | ≤ 4 | – | < 0.01 | 16 | ≤ 4 | ≤ 4 | – | –
Cc1c(CN(C)C(=O)/C=C/c2cnc3c(c2)NC[C@@H](N2C[C@@H](C)O[C@@H](C)C2)C(=O)N3)oc2ccccc12 (single isomer, unassigned) [Compound 21] | 16 (≈ 31.8 µM) | – | – | – | ≤ 4 | ≤ 4 | < 0.01 | –
Cc1oc2ccccc2c1CN(C)C(=O)/C=C/c1cnc2c(c1)CCC(N1CCOCC1)C(=O)N2 (stereo not drawn) [Compound 173, (E)-N-methyl-N-((2-methylbenzofuran-3-yl)methyl)-3-(7-morpholino-8-oxo-6,7,8,9-tetrahydro-5H-pyrido[2,3-b]azepin-3-yl)acrylamide] | – | < 0.01 | – | – | ≤ 4 | ≤ 4 | < 0.01 | –
Cc1c(CN(C)C(=O)/C=C/c2cnc3c(c2)CCC(N2CCCC2)C(=O)N3)oc2ccccc12 (stereo not drawn) [Compound 182, (E)-N-methyl-N-((3-methylbenzofuran-2-yl)methyl)-3-(8-oxo-7-(pyrrolidin-1-yl)-6,7,8,9-tetrahydro-5H-pyrido[2,3-b]azepin-3-yl)acrylamide] | ≤ 4 | < 0.01 | – | ≤ 4 | ≤ 4 | ≤ 4 | < 0.01 | –
Cc1c(CN(C)C(=O)/C=C/c2cnc3c(c2)CCC(N)C(=O)N3)oc2c(Cl)cccc12.O=C(O)C(F)(F)F (stereo not drawn) [Compound 92, (E)-3-(7-amino-8-oxo-6,7,8,9-tetrahydro-5H-pyrido[2,3-b]azepin-3-yl)-N-((7-chloro-3-methylbenzofuran-2-yl)methyl)-N-methylacrylamide 2,2,2-trifluoroacetate] | ≤ 4 | – | < 0.01 | ≤ 4 | ≤ 4 | 8 | – | –
Cc1c(CN(C)C(=O)/C=C/c2cnc3c(c2)CC[C@H](N2CC4(COC4)C2)C(=O)N3)oc2ccccc12 (single isomer, unassigned) [Compound 190] | ≤ 4 | < 0.01 | – | ≤ 4 | ≤ 4 | ≤ 4 | < 0.01 | –
Cc1c(CN(C)C(=O)/C=C/c2cnc3c(c2)NC[C@H](N)C(=O)N3)oc2ccccc12 [Compound 8, (S,E)-3-(3-amino-4-oxo-2,3,4,5-tetrahydro-1H-pyrido[2,3-b][1,4]diazepin-8-yl)-N-methyl-N-((3-methylbenzofuran-2-yl)methyl)acrylamide] | ≤ 4 | < 0.01 | – | ≤ 4 | ≤ 4 | ≤ 4 | < 0.01 | –
Cc1oc2ccccc2c1CN(C)C(=O)/C=C/c1cnc2c(c1)NC[C@H](N1CC3(COC3)C1)C(=O)N2 (single isomer, unassigned) [Compound 35] | – | < 0.01 | – | – | ≤ 4 | ≤ 4 | < 0.01 | –
